From paper PMC7199972 (PLoS ONE, 2020)
Residues, ends and D or L forms follow the SMILES beside them.

Key:
[1] = Cerebrospinal fluid stability of γ-MSH peptides; format: in vitro ADME; conditions: pooled human CSF, 2 μM peptide, 37°C, up to 72 h, residual cAMP signaling on TA MC3R
Method: (§1) For studies on the plasma stability of TA/SA γ-MSH, lyophilized citrated plasma from a pool of human donors was reconstituted in H2O as indicated by the manufacturer (# P9523, Sigma-Aldrich Chemie GmbH). Stability of human γ-MSH peptides was evaluated in fresh frozen human plasma (Interregional Blood Transfusion Swiss Red Cross Ltd, Epalinges, Swizerland). To this end, pooled samples of complete EDTA blood were centrifuged for 10 min at 1300 g, plasma was separated from buffy coat and erythrocytes and cleared by an additional 10 min centrifugation step at 1300 g. Cerebrospinal fluid pooled from ≥ 3 human donors was provided in liquid phase (# 991-19-P, Lee Biosolutions Inc., Maryland Heights, MO, USA). […]
(§2) The residual TA/SA or human γ-MSH signaling activities were simultaneously analyzed on Glo-sensor and TA or human MC3R transfected HEK293T cells, respectively. […] Maximal luminescence values for the residual γ-MSH ligand activities were determined for all time points in the degradation time course, were baseline subtracted and normalized to the maximal luminescence value at time point zero for the same ligand in the same plate. All degradation time courses were performed in triplicate and read on three separate 96 well plates. […] Degradation curves were established by non-linear regression curve fit (least square fit) and half-lives determined from one phase decay curves. […]

[2] = Plasma stability of TA/SA γ-MSH peptides in reconstituted human plasma; format: in vitro ADME; conditions: 37°C
Method: For studies on the plasma stability of TA/SA γ-MSH, lyophilized citrated plasma from a pool of human donors was reconstituted in H2O as indicated by the manufacturer (# P9523, Sigma-Aldrich Chemie GmbH). Stability of human γ-MSH peptides was evaluated in fresh frozen human plasma (Interregional Blood Transfusion Swiss Red Cross Ltd, Epalinges, Swizerland). To this end, pooled samples of complete EDTA blood were centrifuged for 10 min at 1300 g, plasma was separated from buffy coat and erythrocytes and cleared by an additional 10 min centrifugation step at 1300 g. Cerebrospinal fluid pooled from ≥ 3 human donors was provided in liquid phase (# 991-19-P, Lee Biosolutions Inc., Maryland Heights, MO, USA). Aliquots of both body fluids were stored at -80°C until use. Samples of reconstituted plasma or CSF were thawed on ice, the pH of fresh frozen plasma was adjusted to 7.4 by addition of triethanolamine to a final concentration of 50 mM, and 45 μl aliquots were distributed to 1.5 ml Protein LoBind Tubes (Eppendorf AG, Hamburg, Germany). The γ-MSH synthetic peptides were pre-diluted in H2O to 20 μM, and 5 μl each were added on ice to 45 μl pre-laid samples of plasma or CSF. The γ-MSH starting concentration in degradation assays was thus 2 μM. Immediately after mixing, a first 5 μl aliquot for time point zero was removed, tubes were then transferred to a 37°C heat block, and further 5 μl aliquots were collected from plasma and CSF samples after various incubation times up to 68 h and 72.5 h, respectively. For control purposes, γ-MSH peptides were also diluted in H2O to a concentration of 2 μM and aliquots were removed after the corresponding incubation times at 37°C. All collected 5 μl aliquots were immediately diluted in 45 μl H2O and frozen on dry ice in 96 well V-bottom non-binding microplates (Greiner Bio-One Vacuette Schweiz GmbH, St. Gallen, Schweiz) to stop further degradation. After completion of degradation time courses, collection plates were stored at -80°C.
as §2

[3] = Plasma stability of human γ-MSH peptides in fresh frozen human plasma; format: in vitro ADME; conditions: 37°C, non-glycosylated synthetic peptides
Method: as §1, §2

[4] = supernatants of mock-transfected HEK293T cells (IRES GFP-plasmid only); conditions: human (HEK293T)
TA PC1/3 = assay: supernatants of HEK293T cells transfected with TA PCSK1 plasmid, 5 mM CaCl2, pH 5.5 (pH 4.1 to 8.1); conditions: human (HEK293T); Tyto alba alba enzyme
TA PC2 (with mouse 7B2) = assay: supernatants of HEK293T cells transfected with TA PCSK2 and mouse 7B2 plasmids, 5 mM CaCl2, pH 5.5 (pH 4.1 to 8.1); conditions: human (HEK293T); Tyto alba alba enzyme
[5] = Cerebrospinal fluid pooled from ≥ 3 human donors; conditions: 37°C, up to 72.5 h

Q: What does the source list for CSCC[C@H](NC(=O)[C@@H](NC(=O)[C@@H](N)Cc1ccc(O)cc1)C(C)C)C(=O)N[C@@H](CO)C(=O)N[C@@H](Cc1c[nH]cn1)C(=O)N[C@@H](Cc1ccccc1)C(=O)N[C@@H](CCCNC(=N)N)C(=O)N[C@@H](Cc1c[nH]c2ccccc12)C(=O)N[C@@H](CC(N)=O)C(=O)N[C@@H](CCCCN)C(=O)N[C@@H](Cc1ccccc1)C(=O)NCC(N)=O [SA / TA γ2-MSH] (H-YVMSHFRWNKFG-NH2)?
A: half-life in human CSF [1]: > 7.5 h; stability in human cerebrospinal fluid ([1]; triplicate): stable for several hours; plasma half-life ([2]; reconstituted pooled human plasma, 2 μM peptide, residual cAMP signaling on TA MC3R, one-phase decay, triplicate): 0.45 h

Q: For CSCC[C@H](NC(=O)[C@@H](NC(=O)[C@@H](N)Cc1ccc(O)cc1)C(C)C)C(=O)N[C@@H](CO)C(=O)N[C@@H](Cc1c[nH]cn1)C(=O)N[C@@H](Cc1ccccc1)C(=O)N[C@@H](CCCNC(=N)N)C(=O)N[C@@H](Cc1c[nH]c2ccccc12)C(=O)N[C@@H](CC(N)=O)C(=O)N[C@@H](CCCCN)C(=O)N[C@@H](Cc1ccccc1)C(=O)NCC(=O)N[C@@H](CCCNC(=N)N)C(=O)N[C@@H](CCCNC(=N)N)C(=O)N[C@@H](CC(N)=O)C(=O)N[C@@H](CO)C(=O)N[C@@H](CO)C(=O)N[C@@H](CO)C(=O)N[C@@H](CO)C(=O)N[C@@H](CO)C(=O)N[C@@H](CO)C(=O)N[C@@H](CO)C(=O)N[C@@H](CO)C(=O)N[C@@H](CO)C(=O)N[C@@H](CO)C(=O)N[C@@H](CO)C(=O)N[C@@H](CO)C(=O)N[C@@H](CO)C(=O)NCC(=O)NCC(=O)N[C@@H](Cc1c[nH]cn1)C(=O)O [TA γ3-MSH 13 S] (H-YVMSHFRWNKFGRRNSSSSSSSSSSSSSGGH-OH), which “plasma half-life, fold longer than that of γ2-MSH” value ([2]; reconstituted human plasma) is on record?
A: 70 fold

Q: And the “plasma half-life, fold longer than that of γ3-MSH containing 5 serines” value ([2]; reconstituted human plasma)?
A: > 6 fold

Q: And the “plasma half-life (t1/2)” value ([2]; reconstituted lyophilized citrated pooled human plasma, 2 μM peptide, up to 68 h, residual cAMP signaling on TA MC3R/Glo-sensor HEK293T (luminescence), one-phase decay, triplicate)?
A: > 30 h

Q: For CSCC[C@H](NC(=O)[C@@H](NC(=O)[C@@H](N)Cc1ccc(O)cc1)C(C)C)C(=O)NCC(=O)N[C@@H](Cc1c[nH]cn1)C(=O)N[C@@H](Cc1ccccc1)C(=O)N[C@@H](CCCNC(=N)N)C(=O)N[C@@H](Cc1c[nH]c2ccccc12)C(=O)N[C@@H](CC(=O)O)C(=O)N[C@@H](CCCNC(=N)N)C(=O)N[C@@H](Cc1ccccc1)C(=O)NCC(=O)N[C@@H](CCCNC(=N)N)C(=O)N[C@@H](CCCNC(=N)N)C(=O)N[C@@H](CC(N)=O)C(=O)N[C@@H](CO)C(=O)N[C@@H](CO)C(=O)N[C@@H](CO)C(=O)N[C@@H](CO)C(=O)NCC(=O)N[C@@H](CO)C(=O)N[C@@H](CO)C(=O)NCC(=O)N[C@@H](C)C(=O)NCC(=O)N[C@@H](CCC(N)=O)C(=O)O [human γ3-MSH (wt)] (H-YVMGHFRWDRFGRRNSSSSGSSGAGQ-OH), which “plasma stability, fold increased over human γ2-MSH” value [3] is on record?
A: > 100 fold

Q: Which not cleaved [4] does the source give for “Pyr-ERTKR-AMC (L-pyroglutamyl-(arginine-threonine-lysine-arginine)-7-amino-3-methylcoumarin)” here?
A: no activity across the entire pH range

Q: And the cleaved bond (TA PC1/3)?
A: R-AMC

Q: What about the cleaved bond (TA PC2 (with mouse 7B2)) of the same compound?
A: R-AMC

Q: Which not cleaved [5] does the source give for YVMSHFRWNKFGRRNSSSSSGGH here?
A: completely stable in CSF (up to 72 h)

Q: For YVMSHFRWNKFGRRNSSSSSSSSSSSSSGGH, which not cleaved [5] is on record?
A: completely stable in CSF (up to 72 h)

Q: For YVMSHFRWNKFGRRNSSSSSSSSSSSSSSSSSSGGH, which not cleaved [5] is on record?
A: completely stable in CSF (up to 72 h)
